Measurements from ChEMBL document CHEMBL1128556, “New spiropiperidines as potent and selective non-peptide tachykinin NK2 receptor antagonists” (J Med Chem, 1995).

target: T1, Substance-K receptor (Rattus norvegicus, UniProt P16610); test: Binding affinity against tachykinin receptor 2 from rat colon.
T1 sequence (P16610 whole entry): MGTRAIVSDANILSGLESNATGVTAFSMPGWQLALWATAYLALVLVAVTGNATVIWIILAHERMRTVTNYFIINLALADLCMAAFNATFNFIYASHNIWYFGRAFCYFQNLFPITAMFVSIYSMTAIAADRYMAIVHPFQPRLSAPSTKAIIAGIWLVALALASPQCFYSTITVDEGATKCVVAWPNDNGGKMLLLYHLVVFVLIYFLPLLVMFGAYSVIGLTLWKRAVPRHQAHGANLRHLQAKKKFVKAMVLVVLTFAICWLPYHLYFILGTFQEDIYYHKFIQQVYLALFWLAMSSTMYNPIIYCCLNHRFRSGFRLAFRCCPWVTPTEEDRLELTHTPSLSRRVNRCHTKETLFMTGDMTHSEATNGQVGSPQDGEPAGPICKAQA

Row | Compound | Ki [nM]
1 | O=C1OC2(CCN(CCc3c[nH]c4ccc(F)cc34)CC2)CN1Cc1ccc(F)cc1F | 6.31
2 | O=C1OC2(CCN(CCc3c[nH]c4ccc(F)cc34)CC2)CN1Cc1ccc(F)cc1 | 3.98
3 | O=C1OC2(CCN(CCc3c[nH]c4ccc(F)cc34)CC2)CN1C(c1ccccc1)c1ccccc1 | 20
4 | COc1ccc(CN2CC3(CCN(CCc4c[nH]c5ccc(F)cc45)CC3)OC2=O)cc1 | 3.98
5 | O=C1OC2(CCN(CCc3c[nH]c4ccc(F)cc34)CC2)CN1Cc1ccccc1 | 1.26
6 | CC(c1ccccc1)N1CC2(CCN(CCc3c[nH]c4ccc(F)cc34)CC2)OC1=O (configuration not stated) | 20
7 | O=C1OC2(CCN(CCc3c[nH]c4ccc(F)cc34)CC2)CN1C(=O)c1ccccc1 | 2.51
8 | Cc1ccccc1CN1CC2(CCN(CCc3c[nH]c4ccc(F)cc34)CC2)OC1=O | 12.6
9 | CC(=O)N(Cc1ccccc1)CC1(O)CCN(CCc2c[nH]c3ccc(F)cc23)CC1 | 1.58
10 | O=C1OC2(CCN(CCc3c[nH]c4ccc(F)cc34)CC2)CN1Cc1cccc(F)c1 | 1.58
11 | Cc1ccc(S(=O)(=O)N2CC3(CCN(CCc4c[nH]c5ccc(F)cc45)CC3)OC2=O)cc1 | 5.01
12 | Cc1ccc(CN2CC3(CCN(CCc4c[nH]c5ccc(F)cc45)CC3)OC2=O)cc1 | 1
13 | O=C1OC2(CCN(CCc3c[nH]c4ccc(F)cc34)CC2)CN1Cc1cccnc1 | 200
14 | Fc1ccc2[nH]cc(CCN3CCC4(CC3)CCN(Cc3ccccc3)C4)c2c1 | 6.31
15 | O=C1OC2(CCN(CCc3c[nH]c4ccc(F)cc34)CC2)CN1Cc1ccc(Cl)cc1 | 10
16 | COC(=O)c1cccc(CN2CC3(CCN(CCc4c[nH]c5ccc(F)cc45)CC3)OC2=O)c1 | 79.4
17 | O=C1OC2(CCN(CCc3c[nH]c4ccc(F)cc34)CC2)CN1Cc1ccc2ccccc2c1 | 20
18 | O=C1NC2(CCN(CCc3c[nH]c4ccc(F)cc34)CC2)CN1Cc1ccccc1 | 1.26
19 | O=C1OC2(CCN(CCc3c[nH]c4ccc(F)cc34)CC2)CN1Cc1cccc2ccccc12 | 7.94
20 | O=C1OC2(CCN(CCc3c[nH]c4ccc(F)cc34)CC2)CN1Cc1ccncc1 | 100
21 | CN1CC2(CCN(CCc3c[nH]c4ccc(F)cc34)CC2)OC1=O | 1580
22 | N#Cc1ccc(CN2CC3(CCN(CCc4c[nH]c5ccc(F)cc45)CC3)OC2=O)cc1 | 100
23 | O=C1OC2(CCN(CCc3c[nH]c4ccc(F)cc34)CC2)CN1CCc1ccccc1 | 10
24 | O=C1CC2(CCN(CCc3c[nH]c4ccc(F)cc34)CC2)CN1Cc1ccccc1 | 1.26
25 | O=C1OC2(CCN(CCc3c[nH]c4ccc(F)cc34)CC2)CN1Cc1ccccn1 | 15.8
26 | O=C1NC2(CCN(CCc3c[nH]c4ccc(F)cc34)CC2)C(=O)N1Cc1ccccc1 | 126
27 | OC1(CNCc2ccccc2)CCN(CCc2c[nH]c3ccc(F)cc23)CC1 | 100
28 | O=C1CC2(CCN(CCc3c[nH]c4ccc(F)cc34)CC2)NN1Cc1ccccc1 | 10

target: Substance-P receptor (Cavia porcellus, UniProt P30547); test: The compound was tested for binding affinity against Tachykinin receptor 1 from guinea pig trachea
Sequence (P30547 whole entry): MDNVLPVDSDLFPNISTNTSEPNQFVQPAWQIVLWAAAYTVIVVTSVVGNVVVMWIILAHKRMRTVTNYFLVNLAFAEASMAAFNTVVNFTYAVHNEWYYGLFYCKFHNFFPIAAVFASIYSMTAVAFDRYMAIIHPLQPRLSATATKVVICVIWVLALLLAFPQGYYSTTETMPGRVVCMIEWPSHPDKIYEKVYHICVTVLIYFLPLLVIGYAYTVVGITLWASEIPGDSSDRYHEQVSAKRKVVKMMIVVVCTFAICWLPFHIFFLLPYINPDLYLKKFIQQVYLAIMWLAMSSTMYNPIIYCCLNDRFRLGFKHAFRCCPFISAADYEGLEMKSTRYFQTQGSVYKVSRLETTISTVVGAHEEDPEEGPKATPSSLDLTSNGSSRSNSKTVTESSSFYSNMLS

Row | Compound | Ki [nM]
29 | O=C1OC2(CCN(CCc3c[nH]c4ccc(F)cc34)CC2)CN1Cc1ccccc1 | > 10000

target: T2, Neuromedin-K receptor (Cavia porcellus, UniProt P30098); test: The compound was tested for binding affinity against Tachykinin receptor 3 from guinea pig cerebral cortex; type: tissue-based
T2 sequence (P30098 whole entry): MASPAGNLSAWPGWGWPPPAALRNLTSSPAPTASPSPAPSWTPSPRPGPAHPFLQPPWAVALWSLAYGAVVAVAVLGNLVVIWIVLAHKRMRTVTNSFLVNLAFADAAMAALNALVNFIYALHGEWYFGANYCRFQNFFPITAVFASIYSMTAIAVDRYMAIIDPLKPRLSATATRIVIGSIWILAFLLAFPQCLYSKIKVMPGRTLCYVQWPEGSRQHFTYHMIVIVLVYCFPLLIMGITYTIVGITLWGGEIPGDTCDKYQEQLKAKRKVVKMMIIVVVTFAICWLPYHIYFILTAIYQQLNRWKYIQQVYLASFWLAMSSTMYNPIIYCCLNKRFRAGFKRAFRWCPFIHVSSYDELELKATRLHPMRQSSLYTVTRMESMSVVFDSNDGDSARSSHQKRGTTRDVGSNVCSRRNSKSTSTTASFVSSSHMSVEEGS

Row | Compound | Ki [nM]
30 | O=C1OC2(CCN(CCc3c[nH]c4ccc(F)cc34)CC2)CN1Cc1ccccc1 | 79400

target: T3, Substance-K receptor (Homo sapiens, UniProt P21452); test: The compound was tested for binding affinity against Tachykinin receptor 2 from human expressed in CHO cells; type: cell-based
T3 sequence (P21452 whole entry): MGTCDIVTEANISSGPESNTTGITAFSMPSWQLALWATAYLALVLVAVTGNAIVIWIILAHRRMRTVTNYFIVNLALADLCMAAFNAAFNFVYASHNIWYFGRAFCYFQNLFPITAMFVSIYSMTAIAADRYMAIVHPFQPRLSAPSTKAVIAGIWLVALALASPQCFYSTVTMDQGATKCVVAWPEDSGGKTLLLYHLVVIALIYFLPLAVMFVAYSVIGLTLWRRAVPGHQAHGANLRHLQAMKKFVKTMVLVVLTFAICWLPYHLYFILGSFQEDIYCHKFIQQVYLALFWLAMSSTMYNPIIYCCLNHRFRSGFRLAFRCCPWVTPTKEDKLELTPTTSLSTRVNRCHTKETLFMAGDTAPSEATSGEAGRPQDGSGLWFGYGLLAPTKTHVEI

Row | Compound | Ki [nM]
31 | O=C1OC2(CCN(CCc3c[nH]c4ccc(F)cc34)CC2)CN1Cc1ccccc1 | 7.94

target: T4, Substance-K receptor (Cavia porcellus, UniProt Q64077); test: The compound was tested for binding affinity against Tachykinin receptor 2 from guinea pig trachea
T4 sequence (Q64077 whole entry): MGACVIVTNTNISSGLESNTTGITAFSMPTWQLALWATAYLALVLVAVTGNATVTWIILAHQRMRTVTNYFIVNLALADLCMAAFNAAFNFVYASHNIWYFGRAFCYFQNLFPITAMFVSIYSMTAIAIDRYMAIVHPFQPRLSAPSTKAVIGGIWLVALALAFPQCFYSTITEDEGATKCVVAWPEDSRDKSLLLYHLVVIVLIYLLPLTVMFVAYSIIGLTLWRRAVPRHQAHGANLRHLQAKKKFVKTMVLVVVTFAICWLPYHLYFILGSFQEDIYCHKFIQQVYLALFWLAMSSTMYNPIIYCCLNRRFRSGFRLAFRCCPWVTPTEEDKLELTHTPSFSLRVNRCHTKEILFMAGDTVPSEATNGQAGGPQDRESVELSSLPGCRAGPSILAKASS

Row | Compound | Ki [nM]
32 | O=C1OC2(CCN(CCc3c[nH]c4ccc(F)cc34)CC2)CN1Cc1ccccc1 | 2.51
